In PubChem BioAssay (NCI):
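How tested: cells in 96-well plates exposed to compound for 48 hours at five concentrations. At the TGI there is no net growth.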

Assays:
Test in all cases: NCI-60 cell line screen, 48 h
PC-3 prostate = tested on: PC-3 prostate
OVCAR-8 ovarian = tested on: OVCAR-8 ovarian
HS 578T breast = tested on: HS 578T breast
SK-MEL-2 melanoma = tested on: SK-MEL-2 melanoma
KM12 colon = tested on: KM12 colon
HT29 colon = tested on: HT29 colon
OVCAR-5 ovarian = tested on: OVCAR-5 ovarian
SNB-19 CNS = tested on: SNB-19 CNS
MALME-3M melanoma = tested on: MALME-3M melanoma
CAKI-1 renal = tested on: CAKI-1 renal
RPMI-8226 leukemia = tested on: RPMI-8226 leukemia
HCT-116 colon = tested on: HCT-116 colon

C=C1C(=O)OC2/C=C(\C)CC/C=C(/C)CC(OC(=O)/C(=C/CO)CO)C12 (configuration not stated)
TGI (PC-3 prostate): > 100 µM | TGI (OVCAR-8 ovarian): > 100 µM | TGI (HS 578T breast): > 100 µM | TGI (SK-MEL-2 melanoma): 64 µM | TGI (KM12 colon): > 100 µM | TGI (HT29 colon): 75.3 µM | TGI (OVCAR-5 ovarian): 36.8 µM | TGI (SNB-19 CNS): > 100 µM | TGI (MALME-3M melanoma): 42.2 µM | TGI (CAKI-1 renal): 34 µM | TGI (RPMI-8226 leukemia): 72.7 µM

OC(c1cc(C(O)(C(F)(F)F)C(F)(F)F)ncn1)(C(F)(F)F)C(F)(F)F
TGI (PC-3 prostate): > 10 µM | TGI (OVCAR-8 ovarian): > 10 µM | TGI (HS 578T breast): > 10 µM | TGI (SK-MEL-2 melanoma): > 10 µM | TGI (HCT-116 colon): > 10 µM | TGI (KM12 colon): > 10 µM | TGI (HT29 colon): > 10 µM | TGI (SNB-19 CNS): > 10 µM | TGI (MALME-3M melanoma): > 10 µM | TGI (CAKI-1 renal): > 10 µM | TGI (RPMI-8226 leukemia): > 10 µM

NS(=O)(=O)c1ccc(NNC(=O)c2cccc3c(=O)c4ccccc4[nH]c23)cc1
TGI (PC-3 prostate): > 100 µM | TGI (OVCAR-8 ovarian): > 100 µM | TGI (HS 578T breast): > 100 µM | TGI (SK-MEL-2 melanoma): > 100 µM | TGI (HCT-116 colon): > 100 µM | TGI (KM12 colon): > 100 µM | TGI (HT29 colon): > 100 µM | TGI (OVCAR-5 ovarian): > 100 µM | TGI (SNB-19 CNS): > 100 µM | TGI (MALME-3M melanoma): > 100 µM | TGI (CAKI-1 renal): > 100 µM | TGI (RPMI-8226 leukemia): > 100 µM

Cc1nn2c(N)cc(=O)nc2nc1/C=C/c1ccc(N(C)C)cc1
TGI (PC-3 prostate): > 100 µM | TGI (OVCAR-8 ovarian): > 100 µM | TGI (HS 578T breast): > 100 µM | TGI (SK-MEL-2 melanoma): > 100 µM | TGI (HCT-116 colon): > 100 µM | TGI (KM12 colon): > 100 µM | TGI (HT29 colon): > 100 µM | TGI (OVCAR-5 ovarian): > 100 µM | TGI (SNB-19 CNS): > 100 µM | TGI (MALME-3M melanoma): 49.8 µM | TGI (CAKI-1 renal): > 100 µM | TGI (RPMI-8226 leukemia): > 100 µM

C=CCCCCOC1C=CC(OC(C)=O)C(COC(C)=O)O1 (configuration not stated)
TGI (PC-3 prostate): > 100 µM | TGI (OVCAR-8 ovarian): > 100 µM | TGI (HS 578T breast): > 100 µM | TGI (SK-MEL-2 melanoma): > 100 µM | TGI (HCT-116 colon): > 100 µM | TGI (KM12 colon): > 100 µM | TGI (HT29 colon): > 100 µM | TGI (OVCAR-5 ovarian): > 100 µM | TGI (SNB-19 CNS): > 100 µM | TGI (MALME-3M melanoma): > 100 µM | TGI (CAKI-1 renal): > 100 µM | TGI (RPMI-8226 leukemia): > 100 µM

Oc1c(C(O)(c2ccccc2)c2ccc3ccccc3c2O)ccc2ccccc12
TGI (PC-3 prostate): 20.7 µM | TGI (OVCAR-8 ovarian): 29.7 µM | TGI (HS 578T breast): 27.8 µM | TGI (SK-MEL-2 melanoma): 26.4 µM | TGI (HCT-116 colon): 21.8 µM | TGI (KM12 colon): 25.4 µM | TGI (HT29 colon): 33 µM | TGI (OVCAR-5 ovarian): 38.3 µM | TGI (SNB-19 CNS): 28.7 µM | TGI (MALME-3M melanoma): 26.4 µM | TGI (CAKI-1 renal): 33.8 µM | TGI (RPMI-8226 leukemia): 5.32 µM

CCOC(=O)c1ccc(N=C2SC(=S)N(c3ccc(F)cc3)C2=Nc2ccc(C(=O)OCC)cc2)cc1
TGI (PC-3 prostate): 40.6 µM | TGI (OVCAR-8 ovarian): 22.3 µM | TGI (HS 578T breast): 91.7 µM | TGI (SK-MEL-2 melanoma): 35 µM | TGI (HCT-116 colon): 41.6 µM | TGI (KM12 colon): > 71.7 µM | TGI (HT29 colon): 51.6 µM | TGI (OVCAR-5 ovarian): 38.7 µM | TGI (SNB-19 CNS): > 100 µM | TGI (MALME-3M melanoma): 36.6 µM | TGI (CAKI-1 renal): 37.8 µM | TGI (RPMI-8226 leukemia): 51.3 µM

CN1CN(c2ccccc2)C2(CCNCC2)C1=O
TGI (PC-3 prostate): > 100 µM | TGI (OVCAR-8 ovarian): > 100 µM | TGI (HS 578T breast): > 100 µM | TGI (SK-MEL-2 melanoma): > 100 µM | TGI (HCT-116 colon): > 100 µM | TGI (KM12 colon): > 100 µM | TGI (HT29 colon): > 100 µM | TGI (OVCAR-5 ovarian): > 100 µM | TGI (SNB-19 CNS): > 100 µM | TGI (MALME-3M melanoma): > 100 µM | TGI (CAKI-1 renal): > 100 µM | TGI (RPMI-8226 leukemia): > 100 µM

CC(C)(C)OC(=O)N1C(C2=COc3ccccc3O2)=COc2ccccc21
TGI (PC-3 prostate): > 100 µM | TGI (OVCAR-8 ovarian): > 100 µM | TGI (HS 578T breast): > 100 µM | TGI (SK-MEL-2 melanoma): 53.2 µM | TGI (HCT-116 colon): 72.7 µM | TGI (KM12 colon): > 100 µM | TGI (HT29 colon): > 100 µM | TGI (OVCAR-5 ovarian): 99.1 µM | TGI (SNB-19 CNS): > 100 µM | TGI (MALME-3M melanoma): 58.1 µM | TGI (CAKI-1 renal): > 100 µM | TGI (RPMI-8226 leukemia): 43.5 µM

CCCCC1Cc2cc(O)ccc2-c2n1c1cc(O)ccc1[n+]2C (configuration not stated) (tested in a mixture with another compound)
TGI (PC-3 prostate): > 100 µM | TGI (OVCAR-8 ovarian): > 100 µM | TGI (HS 578T breast): > 51.4 µM | TGI (SK-MEL-2 melanoma): > 100 µM | TGI (HCT-116 colon): > 100 µM | TGI (KM12 colon): > 100 µM | TGI (HT29 colon): > 100 µM | TGI (OVCAR-5 ovarian): > 100 µM | TGI (SNB-19 CNS): > 39.8 µM | TGI (MALME-3M melanoma): 73.4 µM | TGI (CAKI-1 renal): > 100 µM | TGI (RPMI-8226 leukemia): 75.1 µM

C1CNCCN2CCCNCCN(C1)CC2
TGI (PC-3 prostate): > 100 µM | TGI (OVCAR-8 ovarian): > 100 µM | TGI (HS 578T breast): > 100 µM | TGI (SK-MEL-2 melanoma): > 100 µM | TGI (HCT-116 colon): > 100 µM | TGI (KM12 colon): > 100 µM | TGI (HT29 colon): > 100 µM | TGI (OVCAR-5 ovarian): > 100 µM | TGI (SNB-19 CNS): > 100 µM | TGI (MALME-3M melanoma): > 100 µM | TGI (CAKI-1 renal): > 100 µM | TGI (RPMI-8226 leukemia): > 100 µM

CCCCc1ccc(Nc2nc3c(ncn3C3OC(COC(C)=O)C(OC(C)=O)C3OC(C)=O)c(=O)[nH]2)cc1 (configuration not stated)
TGI (PC-3 prostate): 48.1 µM | TGI (OVCAR-8 ovarian): 34.7 µM | TGI (HS 578T breast): 56 µM | TGI (SK-MEL-2 melanoma): 31 µM | TGI (HCT-116 colon): 31.9 µM | TGI (KM12 colon): 35.2 µM | TGI (HT29 colon): 37.5 µM | TGI (OVCAR-5 ovarian): > 100 µM | TGI (SNB-19 CNS): 81.5 µM | TGI (MALME-3M melanoma): 36.8 µM | TGI (CAKI-1 renal): > 100 µM | TGI (RPMI-8226 leukemia): 48.9 µM

CCOC(=O)C(SCCO)C(C(=O)OCC)n1ccc(N)nc1=O (configuration not stated)
TGI (PC-3 prostate): > 100 µM | TGI (OVCAR-8 ovarian): > 100 µM | TGI (HS 578T breast): > 100 µM | TGI (SK-MEL-2 melanoma): > 100 µM | TGI (HCT-116 colon): > 100 µM | TGI (KM12 colon): > 100 µM | TGI (HT29 colon): > 100 µM | TGI (OVCAR-5 ovarian): > 100 µM | TGI (SNB-19 CNS): > 100 µM | TGI (MALME-3M melanoma): > 100 µM | TGI (CAKI-1 renal): > 100 µM | TGI (RPMI-8226 leukemia): > 100 µM

N#CS/C(C(Cl)=C(Cl)Cl)=C(/Cl)[N+](=O)[O-]
TGI (PC-3 prostate): 9.79 µM | TGI (OVCAR-8 ovarian): 3.49 µM | TGI (HS 578T breast): > 61.4 µM | TGI (SK-MEL-2 melanoma): 17.1 µM | TGI (HCT-116 colon): 3 µM | TGI (KM12 colon): 32.4 µM | TGI (SNB-19 CNS): 49.4 µM | TGI (MALME-3M melanoma): 3.25 µM | TGI (CAKI-1 renal): 2.42 µM | TGI (RPMI-8226 leukemia): 4.25 µM

O=C(CC(=O)c1ccncc1)c1ccccc1
TGI (PC-3 prostate): > 100 µM | TGI (OVCAR-8 ovarian): > 100 µM | TGI (HS 578T breast): > 100 µM | TGI (SK-MEL-2 melanoma): > 100 µM | TGI (HCT-116 colon): > 100 µM | TGI (KM12 colon): > 100 µM | TGI (HT29 colon): > 100 µM | TGI (OVCAR-5 ovarian): > 100 µM | TGI (SNB-19 CNS): > 100 µM | TGI (MALME-3M melanoma): > 89.2 µM | TGI (CAKI-1 renal): > 100 µM | TGI (RPMI-8226 leukemia): > 100 µM

O=C(Nc1ccc(Cl)cc1)c1cc(S(=O)(=O)Nc2n[nH]c(=O)[nH]2)c(SSc2cc(Cl)c(C(=O)Nc3ccc(Cl)cc3)cc2S(=O)(=O)Nc2n[nH]c(=O)[nH]2)cc1Cl
TGI (PC-3 prostate): > 100 µM | TGI (OVCAR-8 ovarian): > 100 µM | TGI (HS 578T breast): > 100 µM | TGI (SK-MEL-2 melanoma): > 100 µM | TGI (HCT-116 colon): > 100 µM | TGI (KM12 colon): > 100 µM | TGI (HT29 colon): > 100 µM | TGI (OVCAR-5 ovarian): > 100 µM | TGI (SNB-19 CNS): > 100 µM | TGI (MALME-3M melanoma): > 100 µM | TGI (CAKI-1 renal): > 100 µM | TGI (RPMI-8226 leukemia): > 100 µM

O=C1C(NS(=O)(=O)c2ccccc2)=C(n2cnc3ccccc32)C(=O)c2ccccc21
TGI (PC-3 prostate): > 100 µM | TGI (OVCAR-8 ovarian): > 100 µM | TGI (HS 578T breast): > 100 µM | TGI (SK-MEL-2 melanoma): > 100 µM | TGI (HCT-116 colon): > 100 µM | TGI (KM12 colon): > 100 µM | TGI (HT29 colon): > 100 µM | TGI (OVCAR-5 ovarian): > 100 µM | TGI (SNB-19 CNS): > 100 µM | TGI (MALME-3M melanoma): > 100 µM | TGI (CAKI-1 renal): > 100 µM | TGI (RPMI-8226 leukemia): > 100 µM

COC(=O)C12CCC(C(=O)OC)(Cc3c(c4ccccc4n3S(=O)(=O)c3ccccc3)C1)C2=O (configuration not stated)
TGI (PC-3 prostate): > 100 µM | TGI (OVCAR-8 ovarian): > 100 µM | TGI (HS 578T breast): > 84.7 µM | TGI (SK-MEL-2 melanoma): > 100 µM | TGI (HCT-116 colon): > 26.5 µM | TGI (KM12 colon): > 100 µM | TGI (HT29 colon): > 81 µM | TGI (OVCAR-5 ovarian): > 94.6 µM | TGI (SNB-19 CNS): > 100 µM | TGI (MALME-3M melanoma): > 100 µM | TGI (CAKI-1 renal): > 100 µM | TGI (RPMI-8226 leukemia): > 100 µM
